Source: US6797721B2, “Phorboxazole derivatives for treating cancer” (Parker Hughes Institute, priority 1999, dated 2004)

How the values were obtained:
Format in all cases: cell-based, human
U373 glioblastoma cells = assay: In vitro adhesion assay to ECM proteins, U373; conditions: laminin-, fibronectin-, and collagen-coated plates, 0.1 μM to 1 μM for 24 hours
Protocol: (§1) Human brain tumor cell lines U-373 MG and breast cancer cell lines BT-20 and MDA-MB-231 were obtained from American Type Culture Collection (ATCC, Rockville, Md.) and maintained in liquid culture using DMEM supplemented with 10% fetal bovine serum and antibiotics. Fibroblast conditioned medium was used as a source of chemoattractant in vitro invasion assays. Conditioned medium was prepared as described in the literature (Albini et.al., 1987, Cancer Res., 47:3239-3245).
(§2) In vitro adhesion assays were performed to (a) study the baseline adhesive properties of various breast cancer and glioblastoma cell lines and (b) evaluate the effects of phorboxazole A derivatives on the adhesive properties of breast cancer and glioblastoma cells. The plates for the adhesion assays were precoated with the extracellular matrix proteins laminin, fibronectin, or type IV collagen (each at a final concentration of 1 μg/ml in PBS) overnight at 4° C. and dried. On the day of the experiment, the wells were rehydrated and blocked with 10% bovine serum albumin in PBS for 1 hour at room temperature and used for the adhesion assays, as described below.
(§3) The effects of synthetic phorboxazole A and specific derivatives on adhesion of breast cancer and glioblastoma cells was studied. Exponentially growing cells in DMEM were incubated with phorboxazole compounds or genistein as a control at concentrations ranging from 0.1 μM to 1 μM for 24 hours in a humidified 5% CO2 atmosphere. DMSO (0.1%) was included as a vehicle control. After treatment, cells were detached from the flasks with 0.05% trypsin (Life Technologies) resuspended in DMEM, incubated at 37° C. for 2 hours to allow them to recover from the trypsinization stress and examined for their ability to adhere to plates precoated with ECM proteins.
(§4) In adhesion assays, cells were centrifuged, washed twice with serum-free DMEM, counted and resuspended in serum-free DMEM to a final concentration of 2.5×10^5 cells/ml. […] The adherent fraction was quantitated using MTT (3-[4,5-dimethylthiazol-2-yl]-2,5-diphenyltetrazolium bromide) assays. […] The absorbance of each well was measured in a microplate reader (Labsystems) at 540 nm and a reference wavelength of 690 nm.
(§5) To translate the OD540 values into the number of cells in each well, the OD540 values were compared to those on standard OD540-versus-cell number curves generated for each cell line. The adherent fractions of cells treated with phorboxazole A derivatives were compared to those of DMSO-treated control cells and the percent inhibition of adhesion was determined using the formula: [formula]
(§6) Each treatment condition was evaluated in duplicate in 3 independent experiments. The IC50 values were calculated by non-linear regression analysis. […]

leukemia NALM-6 cells = assay: Mitochondrial transmembrane potential assay (DiIC1(5) staining); conditions: 2.5 nM, 5 nM or 10 nM, 72 hours
Protocol: FIG. 2 are graphs showing the effect of synthetic phorboxazole A and phorboxazole A derivatives on the mitochondrial transmembrane potentials of leukemia NALM-6 cells.
Cells were incubated with 2.5 nM, 5 nM or 10 nM of phorboxazole A, 33-O-methyl-phorboxazole A or 45,46-dehydrobromo-phorboxazole A for 72 hours, stained with DiICl (5) to assess the mitochondrial membrane potential (Δψm) and then analyzed with a cell sorter equipped with a HeNe laser.

[1] = test system: MDA-MB-231 breast cancer cells; assay: In vitro adhesion assay to ECM proteins, MDA-MB-231; conditions: laminin-, fibronectin-, and collagen-coated plates, 0.1 μM to 1 μM for 24 hours
Protocol: as §1, §2, §3, §4, §5, §6

[2] = test system: BT-20 breast cancer cells; assay: In vitro adhesion assay to ECM proteins, BT-20; conditions: laminin-, fibronectin-, and collagen-coated plates, 0.1 μM to 1 μM for 24 hours
Protocol: as §1, §2, §3, §4, §5, §6

C=C1C[C@@H]2C[C@@H]3C[C@@H](O)C[C@@H](O3)c3coc(n3)/C=C/C[C@H]3O[C@@H](/C(C)=C/c4coc(C[C@]5(O)C[C@H](OC)C[C@H]([C@H](O)/C=C(C)/C=C/[C@@H](C/C=C/Br)OC)O5)n4)[C@H](C)[C@@H](OC(=O)/C=C\C[C@@H](C1)O2)[C@H]3C [Compound 1, Phorboxazole A]
Inhibition of cell adhesion (U373 glioblastoma cells): active | Depolarized mitochondria (mitochondrial membrane potential) (leukemia NALM-6 cells): progressive increase in depolarized mitochondria | Inhibition of cell adhesion [1]: active | Inhibition of cell adhesion [2]: active
